Here are results for eight compounds from patent US9045431B2, “Processes for the preparation of 5-HT2C receptor agonists” (Arena Pharmaceuticals, Inc., priority 2010, dated 2015).

Entries after “also recorded” stand apart in the source; their conditions may differ.

Data set [1] in a line: Dynamic moisture sorption (DMS). Type of data set: physicochemical. The conditions noted are these: for DMS result (hygroscopicity / form conversion): isotherm 25° C., 10% RH to 90% or 95% RH. As to the method: Dynamic moisture-sorption (DMS) studies were conducted using a dynamic moisture-sorption analyzer, VTI Corporation, SGA-100. Samples were prepared for DMS analysis by placing 5 mg to 20 mg of a compound or a salt thereof in a tared sample holder. The sample was placed on the hang-down wire of the VTI balance. A drying step was run, typically at 40° C. and 0.5-1% RH for 1-2 h. The isotherm temperature is 25° C. Defined % RH holds typically ranged from 10% RH to 90% RH or 95% RH, with intervals of 10 to 20% RH. A % weight change smaller than 0.010% over a specified number of minutes (typically 10-20), or up to 2 h, whichever occurs first, is required before continuing to the next % RH hold. The water content of the sample equilibrated as described above was determined at each % RH hold.

Data set [2] in a line: Competitive slurry experiments / solution-mediated phase transformation (thermodynamic stability of crystal forms). The format is physicochemical. To be noted: for relative thermodynamic stability among the anhydrous polymorphs: ambient / room temperature. The text has this:
The thermodynamic relationships between the Compound 1 hydrochloride salt hemihydrate Form III and the anhydrous polymorphs of Compound 1 hydrochloride salt were established by competitive slurry experiments in acetonitrile and acetone at various aw, values.
At the critical aw, a given anhydrous form and Compound 1 hydrochloride salt hemihydrate Form III will have equal solubility and can coexist in equilibrium. Below the critical aw, the anhydrous form is more thermodynamically stable, thus less soluble. Above the critical water activity, Compound 1 hydrochloride salt hemihydrate Form III is more thermodynamically stable, thus less soluble. Solids from the competitive slurry experiments were identified by PXRD. Slurries with known aw values were used instead of humidity chambers because solution-mediated phase transformations (SMPTs) are much faster than vapor-mediated phase transformations, especially near the critical aw. […] FIG. 16 illustrates the critical aw of form Compound 1 hydrochloride salt hemihydrate Form III, with respect to Compound 1 hydrochloride salt Form I, and Compound 1 hydrochloride salt, IV.
For enantiotropic polymorphs, the temperature that marks the point at which two polymorphs have the same thermodynamic stability is called the transition temperature (Tt).

For data set [3] the following is noted: cited from earlier work; for reported side effect: in some patients.
For data set [4] the following is noted: cited from earlier work.
[5] abbreviates: pivotal phase 3 program, treated for up to two years, fraction of patients.
Setting [6] is: pivotal phase 3 program, up to two years.
[7] abbreviates: second phase 3 trial, top quartile.

For the compound `C[C@H]1CNCCc2ccc(Cl)cc21.C[C@H]1CNCCc2ccc(Cl)cc21.Cl.Cl.O` [(R)-8-Chloro-1-methyl-2,3,4,5-tetrahydro-1H-3-benzazepine Hydrochloride Hemihydrate Form III], the “change in crystalline form by PXRD after the DVS cycle” value in data set [1] (after DVS cycle) is reported as “no change”. The “water adsorbed in DMS” value in data set [1] (at 90% RH) is reported as “less than 0.5 wt %”. Besides, the “DMS result (hygroscopicity / form conversion)” value is recorded as “substantially non-hygroscopic” in data set [1] and “FIG. 11: non-hygroscopic” in data set [1] (listed as Compound 1 Hydrochloride Salt Hemihydrate, Form III).

On to `C[C@H]1CNCCc2ccc(Cl)cc21.Cl` [Compound 1 hydrochloride salt Form I, (R)-8-Chloro-1-methyl-2,3,4,5-tetrahydro-1H-3-benzazepine Hydrochloride Salt Form I], for which the entries for the “DMS result (hygroscopicity / form conversion)” value in data set [1] and in data set [1] (listed as Compound 1 Hydrochloride Salt Form I) were “complete conversion to Compound 1 hydrochloride hemihydrate Form III” and “FIG. 3: Converts to Form III hemihydrate”, respectively.

For `C[C@H]1CNCCc2ccc(Cl)cc21.Cl` [Compound 1 hydrochloride salt Form II, (R)-8-Chloro-1-methyl-2,3,4,5-tetrahydro-1H-3-benzazepine Hydrochloride Salt Form II], the “relative thermodynamic stability among the anhydrous polymorphs” value in data set [2] is reported as “least stable anhydrous polymorph”. Moreover, the “DMS result (hygroscopicity / form conversion)” value in data set [1] is “converting to the hemihydrate Form III”; in data set [1] (listed as Compound 1 Hydrochloride Salt Form II), “FIG. 7: Converts to Form III hemihydrate”.

`C[C@H]1CNCCc2ccc(Cl)cc21.Cl` [Compound 1 hydrochloride salt Form IV, (R)-8-Chloro-1-methyl-2,3,4,5-tetrahydro-1H-3-benzazepine Hydrochloride Salt Form IV]: the “relative thermodynamic stability among the anhydrous polymorphs” value in data set [2] is “most stable of the three anhydrous polymorphs; also recorded: more stable than Compound 1 hydrochloride salt Form I”. The “relative humidity at which the form is not thermodynamically favored over hemihydrate Form III” value in data set [2] (ambient temperature) is not below 20 % RH. Further, the “DMS result (hygroscopicity / form conversion)” value in data set [1] was “converting to Compound 1 hydrochloride salt Form III”; in data set [1] (listed as Compound 1 Hydrochloride Salt Form IV), “FIG. 14: Converts to hemihydrate”.

For `CC(C)CC(N(C)C)C1(c2ccc(Cl)cc2)CCC1` (stereo not drawn) [Sibutramine], the reported side effect entry in data set [3] is “raised blood pressure”.

In the case of `CCCCCCCCCCC[C@@H](C[C@@H]1OC(=O)[C@H]1CCCCCC)OC(=O)[C@H](CC(C)C)NC=O` [Xenical™, Orlistat], in data set [3], the reported side effect entry is reported as “gastrointestinal distress”.

For the compound `CCN[C@@H](C)Cc1cccc(C(F)(F)F)c1` [d-fenfluramine], in data set [3] (reports that led to withdrawal by the FDA in 1998), the “cardiac valve defects, fraction of patients” value is “up to one third”.

`C[C@H]1CNCCc2ccc(Cl)cc21.Cl` [lorcaserin, (R)-8-Chloro-1-methyl-2,3,4,5-tetrahydro-1H-3-benzazepine hydrochloride]: in data set [4] (clinical program), the “adverse event that exceeded the placebo rate by 5%” value is given as “generally mild or moderate, transient headache”; the “depression or suicidal ideation” value is “no signal”; the “heart rate and blood pressure” value is on record as “went down”; the quality of life entry is recorded as “improved”. The “risk of cardiac valvulopathy” value in data set [4] (clinical program) is “did not increase”. In addition, in data set [4] (compared to placebo), the “secondary endpoints (body composition, lipids, cardiovascular risk factors, glycemic parameters)” value is on record as “improved compared to placebo”. Also, in data set [4] (first phase 3 trial, based on a normal BMI of 25, fraction of excess body weight), the “excess body weight lost” value is listed as “about one-third”. In data set [4] (pivotal phase 3 program, on average), the “average weight lost, of their weight” value was “about 8%”. In data set [4] (setting [5]), the “patients who achieved at least 5% weight loss” value is recorded as “About two-thirds” and the “patients who achieved at least 10% weight loss” value is “over one-third”. In addition, in data set [4] (setting [6]), the tolerability entry is “excellent tolerability” and the “weight loss (in words)” value is given as “significant weight loss”. In data set [4] (setting [7]), the “average weight loss, top quartile of patients” value is 35 pounds and the “average weight loss, top quartile of patients, of body weight” value is 16%.
